Assay results published in patent US7148029B2, “Immunoassay for neonicotinyl insecticides” (Syngenta Crop Protection, Inc., priority 1999, dated 2006).

Assays:
[1] = system: polyclonal antibody of the thiamethoxam immunoassay; test: Cross reactivity of the thiamethoxam immunoassay (competitive enzyme immunoassay in antibody-coated tubes); type: binding; parameters: key to Percent Reactivity Relative to Thiamethoxam: NR, non-reactive; details: for Percent Reactivity Relative to Thiamethoxam: test substances in 1% methanol/water, 1000 to 0.01 ng/ml
Procedure: The antibody-coated polystyrene culture tubes are labeled and placed in the tube rack such that the first and last tubes are standards and the remaining standards and samples are mixed. Sample and standard solutions (0.50-ml) are added to the corresponding tubes. A similar volume of enzyme conjugate solution is added. The rack is gently shaken to mix the solutions and set to incubate for 20 min at room temperature. The contents of all tubes are removed by inverting the rack over a stainless steel pan. Each tube is washed to overflowing with distilled water. The rack is inverted over the sink to dump the wash water. Washing is repeated four times. Then the rack is inverted and tapped gently on a paper towel to remove most of the remaining wash. […] The rack is gently shaken at 2.5 min intervals to ensure the enzyme maintains an ample supply of substrate. Generation of the blue colored signal is terminated by addition of acidic stop solution (0.50-ml). The absorbance of the solution in each tube is measured spectrophotometrically at 450 nm.
The concentration of analyte in the samples is determined from a regression function in the form of y=m ln(x)+b.
The cross reactivity, or specificity, of the immunoassay is evaluated to determine if other test substances found in seed coatings would interfere with measurement of thiamethoxam. Test substances are dissolved in 1% methanol/water to concentrations ranging from 1000 to 0.01 ng/ml. Aliquots of each concentration are analyzed as described above. The reactivity of each test substance over this range is determined as previously described in Brady, J. F; Turner, J.; Skinner, D. H. “Application of a triasulfuron enzyme immunoassay to the analysis of incurred residues in soil and water samples.” J. Agric. Food Chem. 1995, 43:2542–2547.

[2] = system: polyclonal antibody of the thiamethoxam immunoassay; test: Typical standard curve for the thiamethoxam immunoassay; type: binding
Procedure: A portion of the seed extract is diluted into 1% MeOH/H2O until the expected concentration of thiamethoxam is brought within range of the calibration curve, 0.5 to 120 parts per billion. Antibody-coated tubes are labeled and placed in a tube rack such that the first and last tubes are standards and the remaining standards and samples are intermixed. The tube rack grips each tube such that the rack may be inverted without loss of the tubes. An aliquot of a standard or sample (0.5 mL) is added to all corresponding tubes. Enzyme conjugate solution (0.5 mL) is added to all tubes. The rack is shaken gently to mix the contents of all tubes. Tubes are incubated for 20 min at room temperature. The rack is inverted to decant the contents of all tubes. Distilled H2O is added to all tubes to overflowing using a flip-top wash bottle and the wash is decanted. Tubes are washed an additional three times. After the final wash, the rack is inverted and the tubes are gently tapped upon a clean paper towel to remove excess wash. Enzyme substrate (0.5 mL) is added to all tubes which are incubated for 10 min at room temperature. The rack is shaken gently every 2.5 min during this incubation. Acidic stop solution (1 M HCl, 0.5 mL) is added to all tubes to terminate signal generation. […] The absorbances of the standards are used to construct a calibration curve, a regression function in the form of […]. The absorbance of each sample is inserted into the function to determine the concentration of the neonicotinoid pesticide in the diluted sample. The resulting concentration is multiplied by the dilution factor to calculate the amount of neonicotinoid pesticide in the original sample. The function describing the response of the thiamethoxam standards is generated by regression analysis.

Row | SMILES | Percent Reactivity Relative to Thiamethoxam [1] | further results
1 | O=C1C2CC=CCC2C(=O)N1SC(Cl)(Cl)Cl (stereo not drawn) [Captan] | NR | –
2 | CC1COC(Cn2cncn2)(c2ccc(Oc3ccc(Cl)cc3)cc2Cl)O1 (stereo not drawn) [Difenoconazole] | NR | –
3 | COC(=O)NC(=S)Nc1ccccc1NC(=S)NC(=O)OC [Thiophanate-methyl] | NR | –
4 | N#CSCSc1nc2ccccc2s1 [TCMTB] | NR | –
5 | FC(F)(F)C(=NOCC1OCCO1)c1ccc(Cl)cc1 [Fluxofenim] | NR | –
6 | N#Cc1c[nH]cc1-c1cccc2c1OC(F)(F)O2 [Fludioxonil] | NR | –
7 | COCC(=O)N(c1c(C)cccc1C)C(C)C(=O)OC (stereo not drawn) [Metalaxyl] | NR | –
8 | CCN(CC)c1nc(C)cc(OP(=S)(OC)OC)n1 [Primifos-methyl] | NR | –
9 | CN1COCN(Cc2cnc(Cl)s2)/C1=N\[N+](=O)[O-] [Thiamethoxam] | 100% | Absorbance at 450 nm (Analytical response) ([2]; Concentration of Thiamethoxam 0.5 Parts Per Billion): 1.3618; Absorbance at 450 nm (Analytical response) ([2]; Concentration of Thiamethoxam 3 Parts Per Billion): 1.0283; Absorbance at 450 nm (Analytical response) ([2]; Concentration of Thiamethoxam 20 Parts Per Billion): 0.6636; Absorbance at 450 nm (Analytical response) ([2]; Concentration of Thiamethoxam 120 Parts Per Billion): 0.3145; reactivity with the immunoassay (in words) ([1]; among the test substances analyzed): significantly reactive
10 | CCCCC(C#N)(Cn1cncn1)c1ccc(Cl)cc1 (stereo not drawn) [Systhane (Myclobutanil), Myclobutanil] | NR | –
11 | O=[N+]([O-])c1c(Cl)c(Cl)c(Cl)c(Cl)c1Cl [Pentachloronitrobenzene] | NR | –
12 | CCOP(=S)(OCC)Oc1nc(Cl)c(Cl)cc1Cl [Chlorpyrifos] | NR | –
13 | COCC(=O)N(c1c(C)cccc1C)[C@H](C)C(=O)OC [Mefenoxam (R-Metalaxyl), Mefenoxam] | NR | –
14 | O=[N+]([O-])NC1=NCCN1Cc1ccc(Cl)nc1 [Imidacloprid] | ^2NR | –
15 | CC1=C(C(=O)Nc2ccccc2)SCCO1 [Carboxin] | NR | –
16 | CN/C(=N\[N+](=O)[O-])NCc1cnc(Cl)s1 [Clothiadin] | <1.0% | –
